Biological target: memapsin 2 (Homo sapiens, UniProt P56817)
Assay: Inhibition of memapsin 2 beta-secretase activity toward fluorogenic substrate FS-2
Assay type: biochemical
Conditions: memapsin 2, pH 4, 37° C., 20 minutes pre-incubation, substrate FS-2; read-out: M2Ki
Method: Potency of compounds were determined by measurement of their inhibition of memapsin 2 activity toward a fluorescent substrate. Kinetic inhibition experiments were performed using the procedure as described in Ermolieff, et al. (Biochemistry 39:12450-12456 (2000), the teachings of which are incorporated hereby in their entirety). Briefly, assays were performed at pH 4, 37° C., by pre-incubation of memapsin 2 enzyme with compound for 20 minutes. Activity measurements were initiated by addition of a fluorogenic substrate FS-2 (Bachem Americas, Torrance, Calif.) MCA-SEVNLDAEFK-DNP (SEQ ID NO.: 2). The substrate was derived from 10 amino acids of the human amyloid precursor protein (APP), with the Swedish variant amino acids at the beta-secretase cleavage site. The terminal amino acid was modified from arginine to lysine to facilitate derivatization with a functional group for detection by autofluorescence. The amino acid sequence of the “core” peptide of the substrate is SEVNLDAEFK (SEQ ID NO.: 3). The amino terminus was derivatized with (7-methoxycoumarin-4-yl)acetyl (MCA), and the epsilon amine of the lysine side chain of the terminal residue (K in sequence SEVNLDAEFK (SEQ ID NO.: 4)) was derivatized with 2,4-dinitrophenyl (DNP).

Sequence of memapsin 2 (P56817 46-501): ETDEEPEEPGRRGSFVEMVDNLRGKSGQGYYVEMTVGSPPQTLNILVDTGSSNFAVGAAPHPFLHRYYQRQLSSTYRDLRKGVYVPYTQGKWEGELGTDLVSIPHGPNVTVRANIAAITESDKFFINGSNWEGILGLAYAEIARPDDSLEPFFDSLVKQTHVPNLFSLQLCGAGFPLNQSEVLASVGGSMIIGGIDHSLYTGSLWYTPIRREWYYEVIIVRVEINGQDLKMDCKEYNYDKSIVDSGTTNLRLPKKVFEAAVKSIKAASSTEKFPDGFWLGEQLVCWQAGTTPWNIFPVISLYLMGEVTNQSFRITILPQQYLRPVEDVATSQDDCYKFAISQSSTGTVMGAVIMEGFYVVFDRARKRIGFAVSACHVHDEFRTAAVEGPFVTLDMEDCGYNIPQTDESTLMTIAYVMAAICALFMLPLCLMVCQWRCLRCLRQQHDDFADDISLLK

Ki [nM]	SMILES
> 201	COc1cccc(CNC[C@@H](O)[C@H](Cc2ccccc2)NC(=O)c2cccc(C(=O)N3CS(=O)(=O)C[C@@H]3c3nc(C)cs3)c2)c1 [Compound 13, N-((2S,3R)-3-hydroxy-4-(3-methoxybenzylamino)-1-phenylbutan-2-yl)-3-((R)-4-(4-methylthiazol-2-yl)thiazolidine-S-dioxide-3-carbonyl)benzamide]
< 100	Cc1cc(C(=O)N[C@@H](Cc2ccccc2)[C@H](O)CNCc2cncc(C(C)(F)F)c2)cc(C(=O)N2CCC[C@@H]2c2nc(C)cs2)c1 [Compound 116, N-((2S,3R)-4-((5-(1,1-difluoroethyl)pyridin-3-yl)methylamino)-3-hydroxy-1-phenylbutan-2-yl)-3-methyl-5-((R)-2-(4-methylthiazol-2-yl)pyrrolidine-1-carbonyl)benzamide]
> 201	COc1cccc(CNC[C@@H](O)[C@H](Cc2ccccc2)NC(=O)c2cccc(C(=O)N3C[C@H](OC)C[C@@H]3c3nc(C)cs3)c2)c1 [Compound 7, N-((2S,3R)-3-hydroxy-4-(3-methoxybenzylamino)-1-phenylbutan-2-yl)-3-((2R,4R)-4-methoxy-2-(4-methylthiazol-2-yl)pyrrolidine-1-carbonyl)benzamide]
< 100	Cc1csc([C@H]2CCCN2C(=O)c2cc(C(=O)N[C@@H](Cc3ccccc3)[C@H](O)CNCc3cncc(C(C)C)c3)cc(C(F)F)c2)n1 [Compound 62, 3-(difluoromethyl)-N-((2S,3R)-3-hydroxy-4-((5-isopropylpyridin-3-yl)methylamino)-1-phenylbutan-2-yl)-5-((R)-2-(4-methylthiazol-2-yl)pyrrolidine-1-carbonyl)benzamide]
< 100	Cc1cc(C(=O)N[C@@H](Cc2ccccc2)[C@H](O)CNCc2cncc(C(C)(F)F)c2)cc(C(=O)N2CCC[C@@H]2c2nc(C)co2)c1 [Compound 113, N-((2S,3R)-4-((5-(1,1-difluoroethyl)pyridin-3-yl)methylamino)-3-hydroxy-1-phenylbutan-2-yl)-3-methyl-5-((R)-2-(4-methyloxazol-2-yl)pyrrolidine-1-carbonyl)benzamide]
> 201	Cc1cc(C(=O)N[C@@H](Cc2ccccc2)[C@H](O)CNCc2cc3ccccc3o2)cc(C(=O)N2CCC[C@@H]2c2nc(C)cs2)c1 [Compound 97, N-((2S,3R)-4-(benzofuran-2-ylmethylamino)-3-hydroxy-1-phenylbutan-2-yl)-3-methyl-5-((R)-2-(4-methylthiazol-2-yl)pyrrolidine-1-carbonyl)benzamide]
> 201	Cc1csc(CNC[C@@H](O)[C@H](Cc2ccccc2)NC(=O)c2cccc(C(=O)N3CCC[C@@H]3c3nc(C)cs3)c2)n1 [Compound 67, N-((2S,3R)-3-hydroxy-4-((4-methylthiazol-2-yl)methylamino)-1-phenylbutan-2-yl)-3-((R)-2-(4-methylthiazol-2-yl)pyrrolidine-1-carbonyl)benzamide]
< 100	C=C(C)c1cccc(CNC[C@@H](O)[C@H](Cc2ccccc2)NC(=O)c2cc(C)cc(C(=O)N3CCC[C@@H]3c3nc(C)co3)c2)c1 [Compound 108, N-((2S,3R)-3-hydroxy-1-phenyl-4-(3-(prop-1-en-2-yl)benzylamino)butan-2-yl)-3-methyl-5-((R)-2-(4-methyloxazol-2-yl)pyrrolidine-1-carbonyl)benzamide]
< 100	Cc1coc([C@H]2CCCN2C(=O)c2cccc(C(=O)N[C@@H](Cc3ccccc3)[C@H](O)CNCc3cccc(OC(F)(F)F)c3)c2)n1 [Compound 114, N-((2S,3R)-3-hydroxy-1-phenyl-4-(3-(trifluoromethoxy)benzylamino)butan-2-yl)-3-((R)-2-(4-methyloxazol-2-yl)pyrrolidine-1-carbonyl)benzamide]
< 100	Cc1csc([C@H]2CCCN2C(=O)c2cc(C(=O)N[C@@H](Cc3ccccc3)[C@H](O)CNCc3cccc(C(F)(F)F)c3)cc(N(C)C)n2)n1 [Compound 98, 2-(dimethylamino)-N-((2S,3R)-3-hydroxy-1-phenyl-4-(3-(trifluoromethyl)benzylamino)butan-2-yl)-6-((R)-2-(4-methylthiazol-2-yl)pyrrolidine-1-carbonyl)isonicotinamide]
> 201	Cc1csc([C@H]2CCCN2C(=O)c2cccc(C(=O)N[C@@H](Cc3ccccc3)[C@H](O)CNC3CC3)c2)n1 [Compound 19, N-((2S,3R)-4-(cyclopropylamino)-3-hydroxy-1-phenylbutan-2-yl)-3-((R)-2-(4-methylthiazol-2-yl)pyrrolidine-1-carbonyl)benzamide]
< 100	Cc1csc([C@H]2CCCN2C(=O)c2cncc(C(=O)N[C@@H](Cc3ccccc3)[C@H](O)CNCc3cc(C#N)cc(C(C)C)c3)c2)n1 [Compound 61, N-((2S,3R)-4-(3-cyano-5-isopropylbenzylamino)-3-hydroxy-1-phenylbutan-2-yl)-5-((R)-2-(4-methylthiazol-2-yl)pyrrolidine-1-carbonyl)nicotinamide]
101 to 200	COc1cccc([C@H](C)NC[C@@H](O)[C@H](Cc2ccccc2)NC(=O)c2cc(C(=O)N3CCC[C@@H]3c3nc(C)cs3)cc(N(C)C)c2)c1 [Compound 53, 3-(dimethylamino)-N-((2S,3R)-3-hydroxy-4-((S)-1-(3-methoxyphenyl)ethylamino)-1-phenylbutan-2-yl)-5-((R)-2-(4-methylthiazol-2-yl)pyrrolidine-1-carbonyl)benzamide]
< 100	Cc1cc(C(=O)N[C@@H](Cc2ccccc2)[C@H](O)CNCc2cncc(C(C)(C)C)c2)cc(C(=O)N2CCC[C@@H]2c2nc(C)co2)c1 [Compound 112, N-((2S,3R)-4-((5-tert-butylpyridin-3-yl)methylamino)-3-hydroxy-1-phenylbutan-2-yl)-3-methyl-5-((R)-2-(4-methyloxazol-2-yl)pyrrolidine-1-carbonyl)benzamide]
< 100	Cc1csc([C@H]2CCCN2C(=O)c2cc(C(=O)N[C@@H](Cc3ccccc3)[C@H](O)CNCc3cccc(C(F)(F)F)c3)nc(N(C)C)n2)n1 [Compound 100, 2-(dimethylamino)-N-((2S,3R)-3-hydroxy-1-phenyl-4-(3-(trifluoromethyl)benzylamino)butan-2-yl)-6-((R)-2-(4-methylthiazol-2-yl)pyrrolidine-1-carbonyl)pyrimidine-4-carboxamide]
< 100	Cc1csc([C@H]2CCCN2C(=O)c2cc(C(=O)N[C@@H](Cc3ccccc3)[C@H](O)CNCc3cncc(C(C)(C)F)c3)cc(N(C)C)c2)n1 [Compound 36, 3-(dimethylamino)-N-((2S,3R)-4-((5-(2-fluoropropan-2-yl)pyridin-3-yl)methylamino)-3-hydroxy-1-phenylbutan-2-yl)-5-((R)-2-(4-methylthiazol-2-yl)pyrrolidine-1-carbonyl)benzamide]
< 100	Cc1csc([C@H]2CCCN2C(=O)c2cccc(C(=O)N[C@@H](Cc3ccccc3)[C@H](O)CNCc3cc(C(C)C)on3)c2)n1 [Compound 106, N-((2S,3R)-3-hydroxy-4-((5-isopropylisoxazol-3-yl)methylamino)-1-phenylbutan-2-yl)-3-((R)-2-(4-methylthiazol-2-yl)pyrrolidine-1-carbonyl)benzamide]
> 201	COc1cccc(CNC[C@@H](O)[C@H](Cc2ccccc2)NC(=O)c2cccc(C(=O)N3CCC[C@H]3c3nc(C)cs3)c2)c1 [Compound 4, N-((2S,3R)-3-hydroxy-4-(3-methoxybenzylamino)-1-phenylbutan-2-yl)-3-((S)-2-(4-methylthiazol-2-yl)pyrrolidine-1-carbonyl)benzamide]
> 201	Cc1coc([C@H]2CCCN2C(=O)c2cccc(C(=O)N[C@@H](Cc3ccccc3)[C@H](O)CNC3CCCCC3)c2)n1 [Compound 107, N-((2S,3R)-4-(cyclohexylamino)-3-hydroxy-1-phenylbutan-2-yl)-3-((R)-2-(4-methyloxazol-2-yl)pyrrolidine-1-carbonyl)benzamide]
< 100	Cc1cc(C(=O)N[C@@H](Cc2ccccc2)[C@H](O)CNCc2cccc(OC(F)(F)F)c2)cc(C(=O)N2CCC[C@@H]2c2nc(C)co2)c1 [Compound 115, N-((2S,3R)-3-hydroxy-1-phenyl-4-(3-(trifluoromethoxy)benzylamino)butan-2-yl)-3-methyl-5-((R)-2-(4-methyloxazol-2-yl)pyrrolidine-1-carbonyl)benzamide]
< 100	COc1cccc([C@H](C)NC[C@@H](O)[C@H](Cc2ccccc2)NC(=O)c2cc(C(=O)N3CCC[C@@H]3c3nc(C)cs3)cc(C(F)F)c2)c1 [Compound 63, 3-(difluoromethyl)-N-((2S,3R)-3-hydroxy-4-((S)-1-(3-methoxyphenyl)ethylamino)-1-phenylbutan-2-yl)-5-((R)-2-(4-methylthiazol-2-yl)pyrrolidine-1-carbonyl)benzamide]
< 100	COc1cc(C(=O)N[C@@H](Cc2ccccc2)[C@H](O)CNCc2cc(Cl)cc(Cl)c2)cc(C(=O)N2CCC[C@@H]2c2nc(C)cs2)c1 [Compound 54, N-((2S,3R)-4-(3,5-dichlorobenzylamino)-3-hydroxy-1-phenylbutan-2-yl)-3-methoxy-5-((R)-2-(4-methylthiazol-2-yl)pyrrolidine-1-carbonyl)benzamide]
< 100	Cc1cc(C(=O)N2CCC[C@@H]2c2nc(C)co2)cc(C(=O)N[C@@H](Cc2ccccc2)[C@H](O)CNCc2cccc(C(F)(F)F)c2)n1 [Compound 96, N-((2S,3R)-3-hydroxy-1-phenyl-4-(3-(trifluoromethyl)benzylamino)butan-2-yl)-6-methyl-4-((R)-2-(4-methyloxazol-2-yl)pyrrolidine-1-carbonyl)picolinamide]

— patent publication US8299267B2, “(3-hydroxy-4-amino-butan-2-yl) -3- (2-thiazol-2-yl-pyrrolidine-1-carbonyl) benzamide derivatives and related compounds as beta-secretase inhibitors for treating” (CoMentis, Inc., priority 2007, dated 2012)
